Format in all cases: physicochemical
The nature of data set [1]: Stability study: storage of the polymorph under ambient conditions, XRPD afterwards. An excerpt: The HCl1 polymorph, which was a hard bulky material, was placed in a closed Amber bottle and stored under ambient conditions. Four months later, the bottle was opened, and the hard bulky material was now a free flowing powder. An XRPD was taken of this free flowing powder.

Data set [2] in a line: Thermogravimetric analysis (TGA). The note with it: ramp 15° C./minute. The procedure: The sample pan was tared, and sample of (S)-3-aminomethyl-7-(3-hydroxy-propoxy)-3H-benzo[c][1,2]oxaborol-1-ol polymorph form HCl4 prepared in Example 2, Method-B, was placed in the pan. The temperature was ramped at a rate of 15° C./minute.
The TGA thermogram of polymorph form HCl3 was acquired using a TA Instruments Q500 Thermogravimetric Analyzer. The sample pan was tared, and sample of (S)-3-aminomethyl-7-(3-hydroxy-propoxy)-3H-benzo[c][1,2]oxaborol-1-ol polymorph form HCl3 prepared as described above was placed in the pan. The temperature was ramped at a rate of 15° C./minute. A weight-loss of 4.7% between 27 and 104° C. was observed and is associated with water-loss due to dehydration.

The nature of data set [3]: Differential scanning calorimetry (DSC). Particulars: ramp 15° C./minute, loose lid aluminum pan. As to the method:
Instrument: TA Instruments Thermal Analysis System, Model DSC Q100
Key Operating Parameters:
Module—DSC Standard Cell FC
Method 1: Equilibrate at 25.00° C.
The DSC thermogram was acquired using a TA Instruments Q100 Differential Scanning calorimeter, as indicated above. A sample of (S)-3-aminomethyl-7-(3-hydroxy-propoxy)-3H-benzo[c][1,2]oxaborol-1-ol polymorph form HCl4 prepared in Example 2, Method B, was accurately weighed out directly into an aluminum DSC pan. The pan was sealed by applying pressure by hand and pushing each part of the pan together (also known as a loose lid configuration). The temperature was ramped at a rate of 15° C./minute. An endothermic transition having an onset of 178.1° C. was measured, and is associated with a decomposition event.
(In general: DSC measures the heat that a sample takes up or gives off during a temperature scan.)

Data set [4] is described as follows: Form screen with competitive ripening experiments (Raman/XPRD grouping). Particulars: for relative polymorph stability (additional studies incl. single crystal form screen): 48 solvents/solvent mixtures, four crystallization modes, room temperature. The procedure:
Alternative methods for preparing polymorph form HCl1, form HCl2, form HCl4, and form HCl5 involve the use of a form screen procedure. The input material for the screen was a nonsolvated form of the hydrochloride salt of (S)-3-aminomethyl-7-(3-hydroxy-propoxy)-3H-benzo[c][1,2]oxaborol-1-ol. […] Screening was conducted in a total of 48 solvents/solvent mixtures using four different crystallization modes listed below. The solvents included water, methanol, 1-propanol, nitromethane, acetonitrile, dimethylsulfoxide, acetone, 2-butanone, dichloromethane, methyl acetate, […], ethyl acetate, chlorobenzene, tetrahydrofuran, 1,4-dioxane, isopropyl ether, toluene, cyclohexane, heptanes, 1-butanol, 2-propanol, trifluoroethanol, dimethyl carbonate, t-butyl methyl ether, isopropyl acetate, ethanol, 1-methoxy-2-propanol, cyclohexanone, dimethyl formamide, 2-methoxyethyl ether, methanol:5 vol % H2O, acetonitrile:5 vol % H2O, acetone:5 vol % H2O, tetrahydrofuran:5 vol % H2O, 2-propanol:5 vol % H2O, methanol:10 vol % H2O, acetonitrile:10 vol % H2O, acetone:10 vol % H2O, tetrahydrofuran:10 vol % H2O, dioxane:10 vol % H2O, 2-propanol:10 vol % H2O, isopropanol+10% dimethylsulfoxide, acetonitrile+10% dimethylsulfoxide, and n-methylpyrrolidone.
Vapor diffusions were also conducted in selected solvents. The four crystallization modes used were: • temperature-cycled ripening of slurries • rapid cooling of room-temperature solutions • room-temperature evaporation of solutions • vapor diffusion of solvent/anti-solvent combinations Characterization:
All samples from the screen were isolated and analyzed by Raman spectroscopy. The samples were then grouped based on Raman spectral match. Representative samples from each of the groups were further analyzed by additional analytical techniques as appropriate (XPRD, DSC, TG-IR, PLM, etc.).
The temperature-cycle, rapid cool, and vapor diffusion samples formed a single group (Group A/Input) based on Raman and XPRD analyses. Most evaporative samples also produced Group A. However, five additional groups (Group B, Group C, Group D, Group E, and Group F) were produced from evaporative and evaporative scale-up experiments based on Raman analyses. These groups were selected for further analysis and/or scale-up.
Group B was an evaporative experiment from nitromethane produced in very low yields (<3 mg). This sample was analyzed by Raman, XPRD, and DSC. Insufficient sample was present for TG-IR (thermogravimetric-infrared spectroscopy). Six scale-up experiments were set up and each produced an amorphous or oily solid. […]
Group C was produced from two evaporative experiments from acetone and 2-butanone in very low yields (<1 mg). This sample was analyzed by Raman, and insufficient sample was present for further analysis. […]

Data set [5] can be described thus: Storage of Form HCl5 (sealed vial / room temperature). As to the method: A solution of isopropanol containing 20% water by volume was added to a vial containing approximately 25 mg of polymorph form HCl4. The resulting mixture was stirred as the temperature was cycled between 0 and 40° C. over the course of 48 hours. The solution was isolated by filtration and evaporated to dryness. The freshly isolated product was verified to be Form HCl5.

For `Cl.NC[C@H]1OB(O)c2c(OCCCO)cccc21` [polymorph form HCl1, (S)-3-aminomethyl-7-(3-hydroxy-propoxy)-3H-benzo[c][1,2]oxaborol-1-ol.HCl], the “solid form after storage (XRPD)” value in data set [1] (closed Amber bottle, ambient conditions, four months) is reported as “converted into the HCl4 form during storage”.
Regarding `Cl.NC[C@H]1OB(O)c2c(OCCCO)cccc21` [polymorph form HCl3, (S)-3-aminomethyl-7-(3-hydroxy-propoxy)-3H-benzo[c][1,2]oxaborol-1-ol.HCl], the “weight-loss (water-loss due to dehydration)” value in data set [2] (between 27 and 104° C.) is on record as 4.7%.
With `Cl.NC[C@H]1OB(O)c2c(OCCCO)cccc21` [polymorph form HCl4, (S)-3-aminomethyl-7-(3-hydroxy-propoxy)-3H-benzo[c][1,2]oxaborol-1-ol.HCl], the “onset of endothermic transition associated with a decomposition event” value in data set [3] came out at 178.1 °C. Further, the relative polymorph stability result in data set [1] (from conversion during four months storage at ambient conditions) was “more stable polymorph than HCl1”. The “relative polymorph stability (additional studies incl. single crystal form screen)” value is reported as “most stable polymorph” in data set [4] and “most stable form at room temperature” in data set [4] (listed as input material). In data set [4] (physical and/or chemical stability, general statement), the “stability compared to other polymorphs of the HCl salt” value is listed as “increased stability”. In addition, the “stepwise weight-loss (water-loss due to reversible chemical transformation)” value in data set [2] (between 162 and 214° C.) was found to be 6.4%. Further, the “temperature beyond which further decomposition is observed” value in data set [2] was over 214 °C.
As for `Cl.NC[C@H]1OB(O)c2c(OCCCO)cccc21` [polymorph form HCl5, (S)-3-aminomethyl-7-(3-hydroxy-propoxy)-3H-benzo[c][1,2]oxaborol-1-ol.HCl], the form after storage entry in data set [5] (sealed vial, at least 7 days) is recorded as “conversion to Form HCl3”. Moreover, the stability on storage entry in data set [5] (stored at room temperature) is “unstable when stored at room temperature and converts to Form HCl3”. Moreover, in data set [4] (sample from very slow evaporation from acetone with 20% water), the “stability of isolated form (Raman)” value is “unstable and converted to Group E”.

The record behind these values is patent publication US8461364B2, “Polymorphs of (S)-3-aminomethyl-7-(3-hydroxy-propoxy)-3H-benzo[C][1,2]oxaborol-1-OL” (GlaxoSmithKline LLC, priority 2008, dated 2013).
